Source: ChEMBL document CHEMBL1201862, “PubChem BioAssay data set” (2004)
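48-hour exposure; five concentrations; linearly interpolated endpoints. GI50 marks 50% less growth.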 Active and inactive are the calls of the source. No stated cut-off is given here; in the data, active = GI50 up to about 1.1 µM and inactive = higher.

Assays:
Test in all cases: NCI anticancer screen, dose series, 48 h
[1] = system: 786-0
[2] = system: A549
[3] = system: ACHN
[4] = system: CAKI-1
[5] = system: EKVX
[6] = system: LOX IMVI
[7] = system: NCI-H226
[8] = system: NCI-H460
[9] = system: OVCAR-3
[10] = system: OVCAR-4
[11] = system: OVCAR-5
[12] = system: OVCAR-8
[13] = system: SF-539
[14] = system: SNB-19
[15] = system: SR
[16] = system: CCRF-CEM
[17] = system: UACC-62
[18] = system: SK-MEL-2

Measured: GI50

CC1=C/C(=C2/N=C(N(C)C)SS2)C(C)=N1.[O-][Cl+3]([O-])([O-])O
inactive: [1] > 100 µM | [2] > 100 µM | [3] > 100 µM | [4] > 100 µM | [5] > 100 µM | [6] 37.3 µM | [7] > 100 µM | [8] > 100 µM | [9] > 100 µM | [10] 71.3 µM | [11] > 100 µM | [12] > 100 µM | [13] > 100 µM | [14] > 100 µM | [15] > 100 µM

COc1nc2c(nc(N)n2C2OC(CO)C(O)C(O)C2O)c(=O)[nH]1 (stereo not given)
inactive: [1] > 100 µM | [2] > 100 µM | [3] > 100 µM | [4] > 100 µM | [16] > 100 µM | [5] > 100 µM | [6] > 100 µM | [7] > 100 µM | [8] > 100 µM | [9] > 100 µM | [10] > 100 µM | [12] > 100 µM | [13] > 100 µM | [14] > 100 µM | [15] > 100 µM | [17] > 100 µM

CC(=O)NNc1nc(C)c(C(=O)/C=C/c2ccc(NC(C)=O)cc2)s1
inactive: [1] > 100 µM | [2] > 100 µM | [3] > 100 µM | [4] > 100 µM | [16] > 100 µM | [5] 71.3 µM | [6] > 100 µM | [8] > 100 µM | [9] > 100 µM | [11] > 100 µM | [12] > 100 µM | [13] > 100 µM | [18] > 100 µM | [14] > 100 µM | [17] > 100 µM

CC1(C)OC2COC3(CNO)OC(C)(C)OC3C2O1 (stereo not given)
inactive: [1] > 100 µM | [2] > 100 µM | [3] > 100 µM | [4] > 100 µM | [16] > 100 µM | [5] > 100 µM | [6] > 100 µM | [7] > 100 µM | [8] > 100 µM | [9] > 100 µM | [10] > 100 µM | [11] > 100 µM | [12] > 100 µM | [13] > 100 µM | [18] > 100 µM | [14] > 100 µM | [17] > 100 µM

N=C(N)NS(=O)(=O)c1ccc(NC(=O)c2cccn3c(=O)c4ccccc4nc23)cc1
inactive: [1] > 100 µM | [2] 45.6 µM | [3] 81.8 µM | [4] > 100 µM | [16] 35.6 µM | [5] > 100 µM | [6] 33.7 µM | [7] 44.8 µM | [8] 53.1 µM | [9] > 100 µM | [10] 41.6 µM | [12] 84.5 µM | [13] > 100 µM | [14] > 100 µM | [15] 24.5 µM | [17] 32.9 µM

CCN(CC)CCC(=O)/C=C/c1ccc(C)cc1
inactive: [1] 11.9 µM | [2] 18.8 µM | [3] 14.4 µM | [4] 1.83 µM | [16] 10.1 µM | [5] 17.1 µM | [6] 4.53 µM | [7] 17.1 µM | [8] 15.7 µM | [9] 16.7 µM | [10] 18.4 µM | [11] 18.6 µM | [12] 13.2 µM | [13] 6.32 µM | [14] 19.3 µM | [15] 6.78 µM | [17] 16.6 µM

COC(=O)C(CC(=O)c1ccccc1)c1ccccc1NC(C)=O (stereo not given)
inactive: [1] > 100 µM | [2] > 100 µM | [3] > 100 µM | [4] > 100 µM | [16] > 100 µM | [5] > 100 µM | [6] > 100 µM | [7] > 100 µM | [8] > 100 µM | [9] > 100 µM | [10] > 100 µM | [11] > 100 µM | [12] > 100 µM | [13] > 100 µM | [14] > 100 µM | [15] > 100 µM | [17] > 100 µM

[O-][S+]1c2ccccc2NC(c2ccc3ccccc3c2)CC1c1ccccc1 (stereo not given)
inactive: [1] 17.3 µM | [2] 30.1 µM | [3] 20.8 µM | [4] 26.8 µM | [16] 17 µM | [5] 26.6 µM | [6] 17.9 µM | [7] 20.6 µM | [8] 19.5 µM | [9] 15.6 µM | [10] 23.9 µM | [11] 42 µM | [12] 21.2 µM | [13] 20 µM | [18] 92.7 µM | [14] 30.6 µM | [17] 37.1 µM

C[Si](C)(C)CC(N)=O
inactive: [1] > 100 µM | [2] > 100 µM | [3] > 100 µM | [4] > 100 µM | [16] > 100 µM | [5] > 100 µM | [6] > 100 µM | [7] > 100 µM | [8] > 100 µM | [9] > 100 µM | [10] > 100 µM | [11] > 100 µM | [12] > 100 µM | [18] > 100 µM | [14] > 100 µM | [17] > 100 µM

O=c1cc(-c2ccccc2)[nH]c2c(Cl)cccc12
inactive: [1] 26.3 µM | [2] 7.98 µM | [3] 78 µM | [16] 16.1 µM | [5] 49.5 µM | [6] 9.35 µM | [7] 9.55 µM | [8] 8.2 µM | [9] 24.5 µM | [10] 18.9 µM | [12] 16.6 µM | [13] 15.3 µM | [18] 6.97 µM | [14] 20.5 µM | [15] 7.53 µM | [17] 4.55 µM

CN(C)c1ccc(/C=C2\N=C(c3ccc(N)cc3)OC2=O)cc1
inactive: [1] > 100 µM | [2] > 100 µM | [3] > 100 µM | [4] > 100 µM | [16] > 100 µM | [5] > 100 µM | [6] > 100 µM | [7] > 100 µM | [8] > 100 µM | [9] > 100 µM | [10] > 100 µM | [11] > 100 µM | [12] > 100 µM | [13] > 100 µM | [18] > 100 µM | [14] > 100 µM | [17] > 100 µM

O=C(CC/C(CC(=O)c1ccc(Br)cc1)=N\O)Nc1ccc(Cl)c(Cl)c1
inactive: [1] > 100 µM | [2] > 100 µM | [3] 65 µM | [16] 37.6 µM | [5] 29.3 µM | [6] > 100 µM | [7] > 100 µM | [8] > 100 µM | [9] 57.5 µM | [10] 64 µM | [11] 54.6 µM | [12] > 100 µM | [13] > 100 µM | [18] > 100 µM | [15] 40.3 µM | [17] 27.2 µM

N#CC(C(=O)CCC(=O)Nc1ccc(Cl)cc1)c1ccccc1Cl (stereo not given)
inactive: [1] > 100 µM | [2] > 100 µM | [3] 54.8 µM | [4] 89.3 µM | [16] > 100 µM | [5] > 100 µM | [7] > 100 µM | [8] > 100 µM | [9] > 100 µM | [10] > 100 µM | [11] 50.5 µM | [12] > 100 µM | [13] > 100 µM | [18] 51.6 µM | [14] > 100 µM | [17] 16 µM

CCCC(=O)c1c(NOC2OCC(OC(C)=O)C(OC(C)=O)C2OC(C)=O)nc(OC)n(C)c1=O (stereo not given)
inactive: [1] > 100 µM | [2] > 100 µM | [3] > 100 µM | [4] > 100 µM | [16] 3.25 µM | [5] > 100 µM | [6] > 100 µM | [7] > 100 µM | [8] > 100 µM | [9] > 100 µM | [10] > 100 µM | [11] > 100 µM | [12] > 100 µM | [13] > 100 µM | [14] > 100 µM | [15] > 100 µM | [17] > 100 µM

Cc1cccc2c3ccc4c(c3n(C)c12)C(=O)C=CC4=O
inactive: [1] > 100 µM | [2] > 100 µM | [4] > 100 µM | [16] 18.2 µM | [5] > 100 µM | [7] > 100 µM | [9] > 100 µM | [10] > 100 µM | [12] 89.1 µM | [13] > 100 µM | [18] > 100 µM | [14] > 100 µM | [15] 29.3 µM | [17] 59.7 µM

N#CC(C(=O)CCC(=O)Nc1ccc(Cl)c(Cl)c1)c1ccccc1 (stereo not given)
inactive: [1] > 100 µM | [2] > 100 µM | [3] > 100 µM | [4] > 100 µM | [5] > 100 µM | [7] > 100 µM | [9] > 100 µM | [10] > 100 µM | [11] > 100 µM | [12] > 100 µM | [13] > 100 µM | [18] > 100 µM | [14] > 100 µM | [17] > 100 µM

O=C1CC23CCCCCCCCCCC2(C1)CC(=O)C3 (stereo not given)
inactive: [1] 32.6 µM | [2] 30 µM | [3] 29 µM | [16] 18.9 µM | [5] 30.1 µM | [7] 26.5 µM | [8] 34.7 µM | [9] 17.7 µM | [11] 23.2 µM | [12] 31.2 µM | [13] 33.7 µM | [18] 19.5 µM | [14] 22.9 µM | [15] 19.9 µM
